From US20220220100A1 (SOLUTIA CANADA INC., priority 2019, published 2022)

Tests used:
[1] = Photostationary state (PSS) and lambda max under simulated sunlight (solar simulator); assay type: physicochemical; conditions: for PSS (SS): absorbance at photostationary state, simulated sunlight (solar simulator), 2×10^−5 M solution; for λmax (nm): peak in the visible range, ring-closed (dark) state
Source text: The term “photostationary state” (PSS) refers to an equilibrium state of a compound or material where the rate of the ring closing (forward) reaction is equal to the rate of the ring-opening reaction, when irradiated with light in a given region of the spectrum. In other words, the ratio of the ring-open isomer to the ring-closed isomer is at an equilibrium. PSS may be expressed with reference to a light source, or with reference to a type of light, for example, QUV, Xenon-arc lamp, Q-SUN, natural or filtered sunlight, UV, VIS, IR, NIR, full spectrum or the like, or with reference to a particular wavelength or range of wavelengths, or in the presence or absence of a filter. Some ring-open and ring-closed isomers may undergo isomerization from one to the other in response to different wavelengths of light. If a wavelength of light is used where only one of the isomers absorbs, irradiation results in complete isomerization to the other form. 254 nm, 313 nm or 365 nm light are commonly used in studies of UV-absorbing isomers, but this may not be representative of the PSS under other light conditions that include the visible spectrum such as natural or simulated sunlight (“full spectrum” light) and/or with filters that block a portion of the UV component of the light. For example, in a ring-closed (dark) state, the magnitude of the maximum absorbance in the visible range may change with the light source (FIG. 1). The wavelength at this peak in the visible range may be referred to as lambda max, or λmax. […] When full spectrum light from a solar simulator (Xenon arc lamp) is used as a light source (line B), a balance is achieved between the ring-closed (dark) state induced by the UV component, and a ring-open (faded) state induced by the visible component of the light. Inclusion of a UV blocking layer in the light path (line A) may reduce the UV component of the light, and the ring-opening reaction induced by the visible light component becomes more prominent. […] Where desired, the ratio of ring-open and ring-closed isomers at a PSS may be quantified by ^1H NMR spectroscopy, such as described in U.S. Pat. No. 7,777,055. In various embodiments, compounds with an increased absorbance at a photostationary state (PSS), or increased contrast ratio, are an improvement over other diarylethene compounds. A compound with a greater absorbance in the visible range can be used in lesser quantities in a formulation or material to achieve a desired contrast ratio, whereas a compound with a lower absorbance at a PSS may need a higher concentration to achieve a desired contrast ratio.
Photostationary State (PSS)
(§1) UV/Vis spectra were obtained using an OceanOptics™ Spectrophotometer. A 2×10^−5 M solution of compound in solvent was prepared, and photofaded using visible light until absorption in the visible region of the spectrum stabilized. The sample was then irradiated with simulated sunlight (QSUN SS-150 Solar Simulator with xenon arc lamp) until the absorption spectrum stabilized. To obtain PSS in the presence of a UV blocking film, a second sample was prepared and irradiated as described, with a UV blocking film inserted in the light path when irradiating.

[2] = UV/Vis absorbance at 400 nm and Yellowness Index of the ring-open isomer; assay type: physicochemical; conditions: for Abs @ 400 nm, RO (Absorption of ring-open isomer at 400 nm): 2×10^−5 M solution, 1 cm pathlength cuvette
Source text: In addition to the above, chromophores should have acceptable colour for both the ring-opened and ring-closed isomers. For example, the ring-open isomer of the chromophore should have a Yellowness Index (YI) of less than about 10 and an absorbance at 400 nm, as measured for a 2×10^−5 M solution in a 1 cm pathlength cuvette. For the ring-closed isomer of the chromophore, the lambda max should be between about 475 nm and 700 nm, tunable according to desired colour and number of chromophores in the composition.
as §1

| SMILES | PSS (SS) [1] | λmax (nm) [1] [nm] | YI (Yellowness Index) [2] | Abs @ 400 nm, RO (Absorption of ring-open isomer at 400 nm) [2] |
| --- | --- | --- | --- | --- |
| CCOC(=O)CCCOc1cc2oc(-c3ccc(C(C)(C)C)cc3)c(C3=C(c4cc(-c5cc(C(C)(C)C)cs5)sc4-c4cc(C(C)(C)C)cs4)C(F)(F)C(F)(F)C3(F)F)c2cc1OCCCC(=O)OCC [Chromophore S386, diethyl 4,4′-((2-(4-(tert-butyl)phenyl)-3-(2-(4,4″-di-tert-butyl-[2,2′:5′,2″-terthiophen]-3′-yl)-3,3,4,4,5,5-hexafluorocyclopent-1-en-1-yl)benzofuran-5,6-diyl)bis(oxy))dibutanoate] | 0.351 | 593 | 4.05 | 0.113 |
| CCOC(=O)CCCOc1cc2oc(-c3ccc(C(C)(C)C)cc3)c(C3=C(c4cc(-c5cc6c(s5)C(C)(C)CCC6(C)C)sc4-c4cc5c(s4)C(C)(C)CCC5(C)C)C(F)(F)C(F)(F)C3(F)F)c2cc1OCCCC(=O)OCC [Chromophore S387, ethyl 4-[(3-{2-[2,5-bis(4,4,7,7-tetramethyl-4,5,6,7-tetrahydro-1-benzothiophen-2-yl)thiophen-3-yl]-3,3,4,4,5,5-hexafluorocyclopent-1-en-1-yl}-2-(4-tert-butylphenyl)-6-(4-ethoxy-4-oxobutoxy)-1-benzofuran-5-yl)oxy]butanoate] | 0.409 | 594 | 8.15 | 0.146 |
| COCCCOc1cc2oc(-c3ccc(C(C)(C)C)cc3)c(C3=C(c4cc(-c5cc6c(s5)C(C)(C)CCC6(C)C)sc4-c4cc5c(s4)C(C)(C)CCC5(C)C)C(F)(F)C(F)(F)C3(F)F)c2cc1OCCCOC [Chromophore S388, 3-(2-(2,5-bis(4,4,7,7-tetramethyl-4,5,6,7-tetrahydrobenzo[b]thiophen-2-yl)thiophen-3-yl)-3,3,4,4,5,5-hexafluorocyclopent-1-en-1-yl)-2-(4-(tert-butyl)phenyl)-5,6-bis(3-methoxypropoxy)benzofuran] | 0.38 | 600 | 6.3 | 0.132 |
| CC(C)(C)c1ccc(-c2oc3cc(OCCN4CCOC4=O)c(OCCN4CCOC4=O)cc3c2C2=C(c3cc(-c4cc5c(s4)C(C)(C)CCC5(C)C)sc3-c3cc4c(s3)C(C)(C)CCC4(C)C)C(F)(F)C(F)(F)C2(F)F)cc1 [Chromophore S390, 3,3′-(((3-(2-(2,5-bis(4,4,7,7-tetramethyl-4,5,6,7-tetrahydrobenzo[b]thiophen-2-yl)thiophen-3-yl)-3,3,4,4,5,5-hexafluorocyclopent-1-en-1-yl)-2-(4-(tert-butyl)phenyl)benzofuran-5,6-diyl)bis(oxy))bis(ethane-2,1-diyl))bis(oxazolidin-2-one)] | 0.45 | 593 | 6.48 | 0.133 |
| CC(=O)Oc1cc2oc(-c3ccc(C(C)(C)C)cc3)c(C3=C(c4cc(-c5cc(C(C)(C)C)cs5)sc4-c4cc(C(C)(C)C)cs4)C(F)(F)C(F)(F)C3(F)F)c2cc1OC(C)=O [Chromophore S396, 2-(4-(tert-butyl)phenyl)-3-(2-(4,4″-di-tert-butyl-[2,2′:5′,2″-terthiophen]-3′-yl)-3,3,4,4,5,5-hexafluorocyclopent-1-en-1-yl)benzofuran-5,6-diyl diacetate] | 0.278 | 578 | 2.78 | 0.08 |
| COc1ccc2oc(-c3ccc(C(C)(C)C)cc3)c(C3=C(c4cc(-c5cc6c(s5)C(C)(C)CCC6(C)C)sc4-c4cc5c(s4)C(C)(C)CCC5(C)C)C(F)(F)C(F)(F)C3(F)F)c2c1 [Chromophore S400] | 0.306 | 592 | 6.67 | 0.125 |
| COc1cc2oc(-c3ccc(C(C)(C)C)cc3)c(C3=C(c4cc(-c5cc6c(s5)C(C)(C)CCCC6(C)C)sc4-c4cc5c(s4)C(C)(C)CCCC5(C)C)C(F)(F)C(F)(F)C3(F)F)c2cc1OC [Chromophore S405] | 0.381 | 598 | 7.26 | 0.143 |
